Patent US20160184230A1, “MELT-PROCESSED POLYMERIC CELLULAR DOSAGE FORM” (priority 2014, published 2016)

Assay: Compression tests of solid excipient (ASTM D695-10)
Type: physicochemical
Settings: compression-molded sample
Description: Compression tests were performed on pure PEG and PEO specimen. The ASTM standard test method for compressive properties of rigid plastics, ASTM D695-10, was used as the protocol to execute compression tests. The testing machine was a Zwick Roell Z2.5 with a 2.5 kN load cell (Zwick GmbH & Co. KG, Ulm, Germany), equipped with compression platens. A speed of 1.3 mm/min was applied for the platens to move relatively towards each other.

With OC[C@@H](O)[C@@H](O)[C@H](O)[C@H](O)CO [Mannitol] the Compressive strength was 0.8 MPa and the Strain at fracture was under 0.02.
